Where two headings read alike, the source gives them in different places.

This note sets out measurements from patent publication US20100144008A1, “TREATMENT OF FABRY DISEASE” (ACADEMISCH ZIEKENHUIS BIJ DE UNIVERSITEIT VAN AMSTERDAM, priority 2006, published 2010).

The nature of series [1]: Partitioning of lyso-CTH in Bligh and Dyer and butanol/water extraction. Type of series: physicochemical. As to the method: An optimal extraction procedure for lyso-CTH from plasma samples was established. A double extraction was carried out, first a Bligh and Dyer extraction followed by butanol extraction.
Another series concerns the target T1, alpha-galactosidase A (Homo sapiens, UniProt P06280).
T1 sequence (P06280 32-429): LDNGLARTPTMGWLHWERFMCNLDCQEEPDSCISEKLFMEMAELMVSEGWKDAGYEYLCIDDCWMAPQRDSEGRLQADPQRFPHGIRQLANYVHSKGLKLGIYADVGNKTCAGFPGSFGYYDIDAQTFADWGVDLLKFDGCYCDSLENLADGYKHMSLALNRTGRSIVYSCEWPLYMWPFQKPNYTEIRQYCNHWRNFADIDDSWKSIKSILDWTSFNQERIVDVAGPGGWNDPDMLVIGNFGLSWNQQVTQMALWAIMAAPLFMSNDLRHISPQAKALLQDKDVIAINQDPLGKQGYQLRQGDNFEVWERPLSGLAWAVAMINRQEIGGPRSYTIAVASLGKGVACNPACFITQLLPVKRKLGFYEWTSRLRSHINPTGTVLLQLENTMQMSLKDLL
In words: Inhibition of alpha-galactosidase A by lyso-CTH. The series is classed as biochemical.

A further series concerns the target T2, alpha-galactosidase B (Homo sapiens, UniProt P17050).
T2 sequence (P17050 18-411): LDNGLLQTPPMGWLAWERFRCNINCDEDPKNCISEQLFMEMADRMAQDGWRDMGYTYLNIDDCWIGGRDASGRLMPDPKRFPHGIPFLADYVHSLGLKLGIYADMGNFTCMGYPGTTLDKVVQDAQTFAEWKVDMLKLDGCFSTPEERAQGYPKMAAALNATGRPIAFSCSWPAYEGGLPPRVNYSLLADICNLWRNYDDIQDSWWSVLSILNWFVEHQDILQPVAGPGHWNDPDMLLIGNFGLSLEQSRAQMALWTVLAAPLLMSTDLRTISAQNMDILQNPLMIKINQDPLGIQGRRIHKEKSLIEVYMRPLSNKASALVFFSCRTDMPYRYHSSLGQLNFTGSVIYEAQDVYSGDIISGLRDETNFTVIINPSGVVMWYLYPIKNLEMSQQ
In words: Inhibition of alpha-galactosidase B by lyso-CTH. Type of series: biochemical.

A further series deals with SMC-41 cell line. In words: Toxic effect in vitro: 3H thymidine incorporation and proliferation in SMC-41 cell line. The settings on record: lyso-CTH 0.065-0.65 μM (as found in plasma of Fabry patients); for proliferation of SMC-41 (smooth muscle cell proliferation): in vitro. Type of series: cell-based. As to the method:
The toxic effect of lyso-CTH was determined in vitro in SMC-41 cell line. ^3H thymidine incorporation (per 24 h) was determined as a function of lyso-CTH concentration.
On the technique in general: Dividing cells build labelled thymidine or BrdU into new DNA.

Series [2] is described as follows: Plasma circulation of alphaGAL replacement enzyme in mouse model of Fabry disease. Type of series: in vivo. The settings on record: compared to underivatised agalsidase beta. As to the method:
Via standard methods agalsidase beta (Fabrazyme®, Genzyme) is pegylated.
In a mouse model of Fabry disease at different time-points plasma samples are analysed for the presence of agalsidase beta to give reference values and at the same different time-points plasma samples are analysed for the presence of pegylated agalsidase beta.

A further series deals with lyso-CTH. In words: Plasma lyso-CTH concentration in mouse model of Fabry disease after enzyme. The series is classed as in vivo. The settings on record: compared to underivatised agalsidase beta.

As to `CCCCCCCCCCCCC/C=C/[C@@H](O)[C@@H](N)CO[C@@H]1O[C@H](CO)[C@@H](O[C@@H]2O[C@H](CO)[C@H](O[C@H]3O[C@H](CO)[C@H](O)[C@H](O)[C@H]3O)[C@H](O)[C@H]2O)[C@H](O)[C@H]1O` [lyso-CTH, lyso-ceramide trihexosamide], the “Partitioning of lyso-CTH (% of total), lower phase” value in series [1] (Bligh and Dyer extraction) was 10 % of total; in series [1] (butanol/water extraction), 2 % of total. Besides, the “Partitioning of lyso-CTH (% of total), upper phase” value in series [1] (Bligh and Dyer extraction) is on record as 90 % of total; in series [1] (butanol/water extraction), 99 % of total. Besides, the “Inhibition of alpha-galactosidase A” value is “inhibits” at alpha-galactosidase A and “potent inhibitor” on alpha-galactosidase A (listed as Lyso-CTH). In addition, the “Inhibition of alpha-galactosidase B” value on alpha-galactosidase B was “inhibits”; on alpha-galactosidase B (listed as Lyso-CTH), “potent inhibitor”. The “3H thymidine incorporation (per 24 h)” value in the series with SMC-41 cell line (SMC-41 cell line) is listed as “increased isotope incorporation”. Further, the “proliferation of SMC-41 (smooth muscle cell proliferation)” value in the series on SMC-41 cell line is recorded as “increased proliferation”; in the series on SMC-41 cell line (listed as Lyso-CTH), “promote in vitro smooth muscle cell proliferation”.
Turning to “pegylated agalsidase beta: agalsidase beta (Fabrazyme, Genzyme) pegylated via standard methods”, the plasma circulation time result in series [2] is given as “increase in plasma circulation time”. Further, the “concentration of lyso-CTH in the plasma samples” value in the series with lyso-CTH was “significantly lower”.
